Data as given in ChEMBL document CHEMBL1127240, “Structure-activity relationships of taxol: synthesis and biological evaluation of C2 taxol analogs” (Bioorg Med Chem Lett, 1994).

Legend:
[1] = molecular target: Tubulin alpha chain (Sus scrofa) (UniProt P02550); assay: Compound was tested for effective concentration for tubulin polymerization expressed as ratio of compound relative to taxol (EC0.01 at 5 uM); format: functional
[2] = tested on: HCT-116; assay: Compound was tested for inhibition of proliferation of human colon cancer cell line (HCT116); format: functional, cell-based

Sequence of Tubulin alpha chain (Sus scrofa) (P02550 whole entry, looked up): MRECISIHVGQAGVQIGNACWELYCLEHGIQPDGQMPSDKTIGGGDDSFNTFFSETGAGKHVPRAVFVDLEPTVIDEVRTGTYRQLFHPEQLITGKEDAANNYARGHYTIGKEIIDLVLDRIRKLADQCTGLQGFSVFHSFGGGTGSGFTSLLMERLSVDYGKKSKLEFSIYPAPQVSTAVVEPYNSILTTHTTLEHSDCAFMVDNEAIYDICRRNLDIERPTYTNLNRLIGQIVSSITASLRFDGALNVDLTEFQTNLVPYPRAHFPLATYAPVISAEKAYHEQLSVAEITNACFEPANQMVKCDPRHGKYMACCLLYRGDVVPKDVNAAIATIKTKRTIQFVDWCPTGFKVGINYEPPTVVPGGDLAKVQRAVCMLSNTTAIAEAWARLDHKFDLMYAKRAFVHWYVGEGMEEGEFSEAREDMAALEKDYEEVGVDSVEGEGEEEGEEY

Row | SMILES | Ratio [1] | IC50 [2]
1 | COc1ccc(C(=O)O[C@H]2C3[C@](C)(C(=O)[C@H](OC(C)=O)C4=C(C)[C@@H](OC(=O)[C@H](O)[C@@H](NC(=O)c5ccccc5)c5ccccc5)C[C@]2(O)C4(C)C)[C@@H](O)C[C@H]2OC[C@@]32OC(C)=O)cc1 (some centres not stated) | > 250 | > 0.088 µM
2 | CC(=O)O[C@H]1C(=O)[C@@]2(C)[C@H]([C@H](OC(=O)c3ccccc3)[C@]3(O)C[C@H](OC(=O)[C@H](O)[C@@H](NC(=O)c4ccccc4)c4ccccc4)C(C)=C1C3(C)C)[C@]1(OC(C)=O)CO[C@@H]1C[C@@H]2O [PACLITAXEL] |  | 0.002 µM
3 | CC(=O)O[C@H]1C(=O)[C@@]2(C)C([C@H](OC(=O)c3ccc([N+](=O)[O-])cc3)[C@]3(O)C[C@H](OC(=O)[C@H](O)[C@@H](NC(=O)c4ccccc4)c4ccccc4)C(C)=C1C3(C)C)[C@]1(OC(C)=O)CO[C@@H]1C[C@@H]2O (some centres not stated) | > 250 | > 0.085 µM
4 | CC(=O)O[C@H]1C(=O)[C@@]2(C)C([C@H](OC(=O)C3CCCCC3)[C@]3(O)C[C@H](OC(=O)[C@H](O)[C@@H](NC(=O)c4ccccc4)c4ccccc4)C(C)=C1C3(C)C)[C@]1(OC(C)=O)CO[C@@H]1C[C@@H]2O (some centres not stated) | 130 | > 0.091 µM
